Calls of active or inactive are those of the source. No cut-off for these calls is given here. Bounds are passed on as bounds.

Data set [1] has as its system Mus musculus. In words: Hypoglycemic activity in streptozocin-induced diabetic Kunming mouse assessed as blood glucose level at 50 mg/kg, po administered once daily for 18 days measured on day 12 post dose (reference value: 23.27 +/- 1.03 mM). The format is functional.
Data set [2] is described as follows: Inhibition of baker's yeast alpha-glucosidase using phenol-alphaD-glycopyranoside as substrate preincubated for 10 mins followed by substrate addition and measured after 30 mins. Also on record: species or system Saccharomyces cerevisiae.
Data set [3] deals with Mus musculus. In words: Hypoglycemic activity in streptozocin-induced diabetic Kunming mouse assessed as reduction in blood glucose level at 50 mg/kg, po treated 30 mins prior to glucose challenge and measured up to 210 mins by OGTT. The format is functional, organism-based.
Data set [4] has as its system Mus musculus. The data set is described as follows: Hypoglycemic activity in streptozocin-induced diabetic Kunming mouse assessed as reduction in blood glucose level at 50 mg/kg, po measured at 7 hrs post dose. The data set is classed as functional, organism-based.
The test system of data set [5] is Mus musculus. The data set is described as follows: Hypoglycemic activity in streptozocin-induced diabetic Kunming mouse assessed as blood glucose level at 50 mg/kg, po administered once daily for 18 days measured on day 12 post dose (reference value: 23.09 +/- 1.45 mM). The format is functional.
For data set [6], the system named is Mus musculus. In words: Hypoglycemic activity in streptozocin-induced diabetic Kunming mouse assessed as blood glucose level at 50 mg/kg, po administered once daily for 18 days measured on day 6 post dose (reference value: 22.31 +/- 1.05 mM). The format is functional.
Data set [7] deals with Mus musculus. In words: Hypoglycemic activity in streptozocin-induced diabetic Kunming mouse assessed as blood glucose level at 50 mg/kg, po administered once daily for 18 days measured on day 1 post dose (reference value: 18.86 +/- 0.7 mM). The format is functional.
Data set [8] can be described thus: Non-competitive inhibition of baker's yeast alpha-glucosidase using varying levels of phenol-alphaD-glycopyranoside as substrate preincubated for 10 mins followed by substrate addition and measured after 30 mins by double reciprocal plot analysis. More on the design: species or system Saccharomyces cerevisiae.
Data set [9] in a line: Toxicity in streptozocin-induced diabetic Kunming mouse assessed as effect on body weight at 50 mg/kg, po administered once daily for 18 days measured every 6 days starting from day 1 during compound dosing. The format is organism-based. The conditions noted are these: in vivo.
The test system of another data set is Saccharomyces cerevisiae. In words: Non-competitive inhibition of baker's yeast alpha-glucosidase assessed as Km for substrate using varying levels of phenol-alphaD-glycopyranoside as substrate preincubated for 10 mins followed by substrate addition and measured after 30 mins by double reciprocal plot analysis.
The subject of data set [10] is Mus musculus. In words: Hypoglycemic activity in streptozocin-induced diabetic Kunming mouse assessed as reduction in blood glucose AUC at 50 mg/kg, po treated 30 mins prior to glucose challenge and measured up to 210 mins by OGTT. The format is functional, organism-based.
In another data set the test system is NIH3T3. The data set is described as follows: Cytotoxicity against mouse 3T3 cells assessed as growth inhibition measured after 48 hrs by MTT assay. The data set is classed as cell-based. The conditions noted are these: NIH3T3, 48 h.
The nature of data set [11]: Inhibition of baker's yeast alpha-glucosidase using PNPG as substrate preincubated for 15 mins followed by substrate addition and measured after 5 mins by spectrophotometric method. Also on record: species or system Saccharomyces cerevisiae.
Data set [12] is described as follows: Inhibition of baker's yeast alpha-glucosidase using PNPG as substrate after 10 mins by spectrophotometric method. Also on record: species or system Saccharomyces cerevisiae.

In the case of `COc1ccc(/C=C2\C[C@]3(C)[C@H]4C[C@@H](F)[C@]56OC(=O)[C@@]7(CCC(C)(C)C[C@H]75)CC[C@@]6(C)[C@]4(C)CC[C@H]3C(C)(C)C2=O)cc1`, the Activity is 13.74 mM in the data set on Mus musculus [1]; 17.49 mM in the data set on Mus musculus [5]; 19.96 mM in the data set with Mus musculus [6]; 18.61 mM with Mus musculus [7]; “Non-Toxic” in data set [9]. The IC50 was 330 nM in [2] and > 300 µM in the data set on NIH3T3. Moreover, the result in the data set with Mus musculus [3], with Mus musculus [4] and with Mus musculus [10] was Active. The Ki in [8] worked out at 520 nM. In addition, the Km in the data set on Saccharomyces cerevisiae amounted to 120 µM.
In data set [11], `CC1(C)CC[C@]2(C(=O)Oc3ccc(C(=O)/C=C/c4ccc(Br)cc4)cc3)CC[C@]3(C)C(=CC[C@@H]4[C@@]5(C)CCC(=O)C(C)(C)[C@@H]5CC[C@]43C)[C@@H]2C1` registered an IC50 of 2200 nM.
Consider `CC1(C)CC[C@@]23CC[C@]4(C)[C@](OC2=O)([C@H](F)C[C@@H]2[C@@]5(C)C/C(=C\c6ccc(C(F)(F)F)cc6)C(=O)C(C)(C)[C@@H]5CC[C@]24C)[C@@H]3C1`, for which the IC50 in [2] was found to be 1510 nM; in data set [12] it was 1900 nM.

The values above are taken from ChEMBL document CHEMBL4422652, “Synthesis and biological evaluation of novel oleanolic acid analogues as potential α-glucosidase inhibitors” (Eur J Med Chem, 2019).
